“Also recorded” adds a separate entry of the source. Read-outs that look alike come from different tables or passages of the source.
Tests used:
[1] = test system: retinal ganglion cells; experiment: Attenuation of ethambutol toxicity by NMDA antagonists and a calcium channel blocker (retinal ganglion cell viability, FIG. 3); details: for protection of retinal ganglion cells from ethambutol-mediated toxicity: 24 hours; for retinal ganglion cell viability, drug alone: no ethambutol
[2] = test system: M. tuberculosis and M. avium isolates; experiment: Minimal inhibitory concentration of ethambutol by radiometric Bactec technique with and without protective agents; assay type: cell-based, Mycobacterium tuberculosis; Mycobacterium avium
[3] = test system: retinal ganglion cells; experiment: Toxicity of other drugs to retinal ganglion cells and prevention by MK801 (FIG. 8); assay type: cell-based
Procedure: FIG. 8 is a bar graph showing prevention of drug toxicity by the protective agent, MK801. […] Retinal ganglion cells were incubated for 24 hours with either drug alone (5-fluorouracil (5-FU), Defororixamine, and Tamoxifenor drug +MK801, followed by measurement of cell viability.
As discussed above, other drugs are known to cause optic neuropathy (see Table 13). However, the mechanism of drug toxicity has not been defined. Experiments were carried out to determine whether NMDA antagonists prevented retinal cell damage induced by such drugs. […] The cytotoxic effect of these drugs on retinal ganglion cells was prevented by the NMDA antagonist, MK801.

[4] = test system: retinal ganglion cell layer; experiment: In vivo toxicity of ethambutol to the retina; details: 100 mg/kg daily, orally, 30 days
[5] = in vitro; details: rat, retinal ganglion cells
[6] = test system: all other cells of the retinal dissociations; experiment: Viability of the other cell types in dissociated retinal preparations exposed to ethambutol; assay type: cell-based, rat; details: increasing concentrations, 24 hours
Procedure: FIG. 1 is a line graph showing dose-dependent toxicity of ethambutol to retinal ganglion cells in vitro. Dissociated rodent retinal ganglion cells were incubated with increasing concentrations of ethambutol for 24 hours. The ability of cells to take up and cleave fluorescein diacetate was used as an index of their viability and lack of injury. […] Retinal ganglion cells (open circles) and all other cells (open squares) were scored separately for viability. […] (*) indicates statistical difference by an analysis of variance (ANOVA) followed by Scheffe multiple comparison of means, P<0.01. Values were normalized to control (n=1) and represent the means ± standard deviations of four experiments; at least 150 retinal ganglion cells scored for control values in each experiment.
Initial experiments were carried out in vitro. Freshly dissociated rat retinal preparations were exposed to increasing concentrations of ethambutol. […] Retinal cells were incubated in the presence of increasing concentrations of ethambutol, and scored for viability at 24 hours. Retinal ganglion cells were identified by the presence of DiI fluorescence.
Viability was assayed by uptake and cleavage of a second fluorescent dye, fluorescein diacetate. Ethambutol toxicity was detected only in retinal ganglion cells (FIG. 1, open circles). […]

[7] = cited from earlier work
[8] = test system: retinal ganglion cells; experiment: Fura-2 intracellular calcium in retinal ganglion cells (response to NMDA and ethambutol); assay type: cell-based, rat; details: for effect on intracellular calcium, ethambutol alone: 10 μM ethambutol; for greater rise in intracellular calcium with ethambutol + NMDA than with NMDA alone: 10 μM ethambutol + 100 μM NMDA
Procedure: FIG. 6 is a bar graph showing the effect of ethambutol and Zn^2+ on the cellular response to NMDA. Dissociated retinal ganglion cells were labeled with the calcium sensitive dye, fura-2. 100 μM NMDA were then applied by puffer, and the peak intracellular calcium concentration measured (peak response occurred between 10 and 70 seconds after NMDA exposure for all cells). The indicated drugs were then applied in the following concentrations: 10 μM ethambutol (Eth) or 100 μM Zn^2+. Values are means ± standard deviations. Ethambutol + NMDA led to a 20% greater rise in intracellular calcium then NMDA alone. (*) indicates statistical difference by an analysis of variance (ANOVA) followed Scheffe multiple comparison of means, P<0.01. Ethambutol, NMDA, and Zn^2+ simultaneously led to the same rise seen with NMDA alone. Ethambutol alone or in combination with Zn^2+ had no effect under these conditions.
(§1) Neuronal intracellular free Ca^2+ concentration ([Ca^2+ ]i) was analyzed with fura-2 acetoxymethyl ester (fura 2-AM; Molecular Probes) following procedures known in the art. DiI labeled retinal ganglion cells were subsequently labeled with fura-2. Agonists (NMDA-glycine, glutamate, etc.) were applied by pneumatic pipettes (aperture […], 3-6 psi) placed 10-20 μm from the cells of interest. Data were analyzed via the Metamorph software package (Image 1).
There are several possible explanations for the finding that ethambutol toxicity to retinal ganglion cells is mediated through the NMDA receptor. A primary effect of NMDA is its known ability to increase intracellular calcium in neurons; this effect was monitored via the fluorescent dye, fura 2. Accordingly, dissociated retinal ganglion cells were labeled with fura-2. Ethambutol in concentrations from 1 nM to 1 mM was puffed onto retinal ganglion cells for periods of up to five minutes. No change was detected in 25 of 25 cells examined. As a control, 100 μM NMDA was subsequently puffed onto these cells, and in 23 of 25 cells the intracellular calcium rose to […] or higher.
Since a rise in intracellular calcium is one of the neuron's first responses to exogenously applied glutamate or NMDA, the following experiment was performed to detect changes in intracellular calcium. Dissociated retinal ganglion cells were labeled with the calcium sensitive dye, fura 2. Fura 2 allows for measurement of cytosolic calcium concentrations.
100 μM NMDA was applied to individual retinal ganglion cells, and the rise in intracellular calcium measured. The cells were then allowed to recover, and the intracellular calcium returned to baseline. 10 μM ethambutol and 100 μM NMDA were then simultaneously applied to the same cell (FIG. 6, second bar).
As a second experiment, 100 μM Zn^2+ chloride was added to the ethambutol/NMDA puffer. In the presence of 100 μM Zn^2+, 100 μM NMDA plus 10 μM ethambutol led to a rise in intracellular calcium that was indistinguishable from NMDA alone (FIG. 6, third bar). […] Accordingly, exogenous Zn^2+ reduced the NMDA/ethambutol response to the baseline NMDA response.

[9] = test system: retinal ganglion cells; details: 10 μM ethambutol, within 24 hours
[10] = test system: retinal cultures; experiment: Endogenous glutamate in retinal cultures by HPLC; assay type: cell-based, rat; details: overnight incubation with ethambutol
Procedure: The role of endogenous glutamate in ethambutol toxicity was evaluated. Endogenous glutamate in retinal cultures was 26±2 μM (mean ±standard deviation, n=12) (as measured by high pressure liquid chromatography).
This level of endogenous glutamate was not affected by overnight incubation with ethambutol. […] Nevertheless, experiments were carried out to determine whether endogenous glutamate was required for the expression of ethambutol toxicity in these preparations. […] The endogenous glutamate was specifically degraded by the addition of the enzyme glutamate-pyruvate transaminase (GPT) in the presence of the cosubstrate pyruvate.

[11] = test system: retinal ganglion cells; experiment: cells; details: Rattus norvegicus, 24 h, read-out: half maximal effect of ethambutol toxicity to retinal ganglion cells, 24 hours incubation; viability by fluorescein diacetate
[12] = test system: NMDA-evoked [Ca2+]i responses; experiment: Digital calcium imaging of NMDA-evoked [Ca2+]i responses; assay type: cell-based; details: 6 μM memantine, 200 μM NMDA
Procedure: It has now been discovered that memantine inhibits NMDA-evoked [Ca^2+ ]i responses. […] In fact, [Ca^2+ ]i rose only to levels associated with a low degree of NMDA receptor stimulation in the presence of memantine.
as §1

[13] = biological target: NMDA receptor; details: at the resting potential; cited from earlier work

C[C@]12N[C@H](Cc3ccccc31)c1ccccc12 [MK-801, dizocilpine]
protection of retinal ganglion cells from ethambutol-mediated toxicity ([1]; 12 μM drug with 10 μM ethambutol): do protect retinal ganglion cells from ethambutol induced injury; also recorded: protect retinal ganglion cells from ethambutol-mediated toxicity
retinal ganglion cell viability, drug alone ([1]; 12 μM drug): did not affect cell viability
effect on the concentration of ethambutol necessary to kill mycobacterial strains ([2]; 12 μM agent): had no effect
effect on the cytotoxic effect of 5-FU, Defororixamine and Tamoxifen on retinal ganglion cells ([3]; drug + MK801, 24 hours): prevented

CC[C@@H](CO)NCCN[C@@H](CC)CO [ethambutol]
loss of cells in the retinal ganglion cell layer versus control [4]: 18%
other ocular pathology [4]: no other ocular pathology was detected
cytotoxicity at 24 h, 10 µM [5]: ≥ 50%
ethambutol toxicity in other cell types [6]: No ethambutol toxicity
patients developing optic neuropathy ([7]; patients taking ethambutol): up to 15%
patients with permanent visual loss ([7]; patients taking ethambutol): up to 3%
concentration ([7]; read-out: concentration in the cerebrospinal fluid, patients taking the drug orally): 10 µM
change in intracellular calcium, ethambutol alone ([8]; 1 nM to 1 mM puffed for up to five minutes, 25 of 25 cells): No change
effect on intracellular calcium, ethambutol alone [8]: had no effect on intracellular calcium
greater rise in intracellular calcium with ethambutol + NMDA than with NMDA alone [8]: ≥ 20%
greater rise in intracellular calcium with ethambutol + NMDA than with NMDA alone ([8]; listed as Ethambutol): 20%
effect on intracellular calcium, ethambutol alone ([8]; listed as Ethambutol): had no effect
retinal ganglion cells that died compared to sibling control cultures [9]: Approximately half
effect on the level of endogenous glutamate [10]: not affected
EC50 [11]: 10 µM

COCCOC(=O)C1=C(C)NC(C)=C(C(=O)OC(C)C)C1c1cccc([N+](=O)[O-])c1 (stereo not drawn) [nimodipine]
protection of retinal ganglion cells from ethambutol-mediated toxicity ([1]; 100 nM drug with 10 μM ethambutol): do protect retinal ganglion cells from ethambutol induced injury; also recorded: protect retinal ganglion cells from ethambutol-mediated toxicity
retinal ganglion cell viability, drug alone ([1]; 100 nM drug): did not affect cell viability
effect on the concentration of ethambutol necessary to kill mycobacterial strains ([2]; 100 nM agent): had no effect

CC12CC3CC(C)(C1)CC(N)(C3)C2.Cl [memantine, 1-amino-3,5-dimethyladamantane hydrochloride]
protection of retinal ganglion cells from ethambutol-mediated toxicity ([1]; 12 μM drug with 10 μM ethambutol, hydrochloride): do protect retinal ganglion cells from ethambutol induced injury; also recorded: protect retinal ganglion cells from ethambutol-mediated toxicity
retinal ganglion cell viability, drug alone ([1]; 12 μM drug): did not affect cell viability
effect on excessive influx of calcium elicited by NMDA [12]: largely prevent
effect on the concentration of ethambutol necessary to kill mycobacterial strains ([2]; 12 μM agent): had no effect
Ki [13]: 1 to 2 µM

NC(CCCP(=O)(O)O)C(=O)O (stereo not drawn) [APV, 2-amino-5-phosphonovalerate]
retinal ganglion cell viability, drug alone ([1]; 100 μM drug): did not affect cell viability

CC/C(=C(\c1ccccc1)c1ccc(OCCN(C)C)cc1)c1ccccc1 [Tamoxifen]
toxicity to retinal ganglion cells ([3]; drug alone, 24 hours): toxic to retinal ganglion cells

CC(=O)N(O)CCCCCNC(=O)CCC(=O)N(O)CCCCCNC(=O)CCC(=O)N(O)CCCCCN [Defororixamine, deferoxamine]
toxicity to retinal ganglion cells [3]: toxic to retinal ganglion cells

O=c1[nH]cc(F)c(=O)[nH]1 [5-FU, 5-fluorouracil]
toxicity to retinal ganglion cells [3]: toxic to retinal ganglion cells

N#Cc1cc2nc(O)c(O)nc2cc1[N+](=O)[O-] [CNQX, 6-cyano-7-nitroquinoxaline-2,3-dione]
protection of retinal ganglion cells from ethambutol-mediated toxicity ([1]; 100 μM drug with 10 μM ethambutol): ineffective at preventing ethambutol-mediated cell death
retinal ganglion cell viability, drug alone ([1]; 100 μM drug): did not affect cell viability
